Test results reported in patent US20180344808A1, “HAPTOGLOBIN DERIVATIVE FOR TREATMENT OF SEPSIS AND ACETAMINOPHEN-INDUCED LIVER DAMAGE” (THE FEINSTEIN INSTITUTE FOR MEDICAL RESEARCH, priority 2017, published 2018).
No end group written: not given here.

Columns and labels:
HMGB1 = molecular target: T1, HMGB1 (Homo sapiens, UniProt P09429); experiment: Surface plasmon resonance (BIAcore) analysis of binding to HMGB1
T1 sequence (P09429 1-215): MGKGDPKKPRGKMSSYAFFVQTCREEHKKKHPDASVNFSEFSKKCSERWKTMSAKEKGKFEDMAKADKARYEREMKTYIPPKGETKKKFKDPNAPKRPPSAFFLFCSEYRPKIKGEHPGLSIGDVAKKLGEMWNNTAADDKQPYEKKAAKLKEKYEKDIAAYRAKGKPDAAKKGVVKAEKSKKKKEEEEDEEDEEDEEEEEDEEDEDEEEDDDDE
Description: FIG. 2A-2B: 2A. Human haptoglobin has three phenotypes and contains α and β subunits. 2B. […] Data shown is representative of 3 separate experiments.
(§1) FIG. 6A-6C: 6A. Schematics of haptoglobin (Hp) β and Hp β peptide (SEQ ID NO:1). 6B. […] 6C. […] N=5.
Haptoglobin (Hp) β binds to HMGB1: Human haptoglobin has three phenotypes and contains α and β subunits.
(§2) Haptoglobin β peptide retains the activity to bind and inhibit HMGB1 toxicity. […] (See FIG. 6C).

[1] = tested on: HMGB1-induced TNF release in primary mouse macrophages; experiment: Inhibition of HMGB1-induced TNF release in primary mouse macrophages; format: cell-based; settings: N=5, result in words
Description: as §1, §2

[2] = tested on: HMGB1-induced TNF release in murine macrophage-like RAW 264.7 cells; experiment: Inhibition of HMGB1-induced TNF release in RAW 264.7 cells; format: cell-based
Experimental: FIG. 3A-3B: HMGB1 stimulated TNF release in murine macrophage-like RAW 264.7 cells. 3A. The addition of haptoglobin produced a dose-dependent attenuation of the HMGB1-induced TNF release (up to 90% inhibition at 100 μg/ml). 3B. […] N=3-5 experiments. *: P<0.05 vs. HMGB1 alone.

CLP-induced sepsis = experiment: Survival in cecal ligation and puncture (CLP)-induced sepsis; format: in vivo, mice
Description: (§3) Haptoglobin is a complex protein consisting of α and β subunits (Yueh S C et al. J Chromatography, 2007). […] Administration of haptoglobin β subunit protects against lethality in mice with CLP-induced sepsis (CLP survival=85% in haptoglobin β-treated versus 50% in vehicle-treated group; n=22 mice per group, P<0.05) and in experimental acetaminophen-induced liver injury (Survival in haptoglobin β treated group=80% versus 35% in vehicle control group, P<0.05, n=20 mice per group). Screening of a peptide library of the haptoglobin β identified a critical region ([…], residues #278-305 in the B subunit) that retains the ability to inhibit HMGB1-induced TNF release from cultured macrophages. Taken together, these findings reveal a novel mechanism for haptoglobin modulation of the inflammatory action of HMGB1, with significant implications for developing experimental strategies targeting HMGB 1-dependent inflammatory diseases.
N=16 mice/group. […] Recombinant haptoglobin β (10 or 100 μg/mouse) was given once a day for 3 days starting at 24 hours after CLP surgery (N=25 mice/group). (See FIG. 5A-5B).

[3] = tested on: acetaminophen-induced liver injury; experiment: Survival in experimental acetaminophen-induced liver injury; format: in vivo; settings: mice; vehicle control group 35%; n=20 per group; P<0.05
Description: as §3
Acetaminophen-induced liver injury: Administration of haptoglobin β subunit protects against lethality in mice with experimental acetaminophen-induced liver injury (survival in haptoglobin β treated group=80% versus 35% in vehicle control group, P<0.05, n=20 mice per group).

[4] = molecular target: T2, Haptoglobin beta subunit (human) (human, UniProt P00738 162-406); experiment: surface plasmon resonance
T2 construct: also called haptoglobin β; Hp β
T2 sequence: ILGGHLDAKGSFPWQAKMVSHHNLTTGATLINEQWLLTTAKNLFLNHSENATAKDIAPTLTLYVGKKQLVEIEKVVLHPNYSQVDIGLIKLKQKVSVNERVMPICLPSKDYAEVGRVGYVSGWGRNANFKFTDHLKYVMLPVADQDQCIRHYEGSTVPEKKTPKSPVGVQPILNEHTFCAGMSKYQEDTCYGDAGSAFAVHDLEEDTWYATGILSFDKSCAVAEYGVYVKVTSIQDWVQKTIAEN

## GYVSGWGRNANFKFTDHLKYVMLPVAD [Hpβ peptide]
HMGB1; BIAcore analysis
  Kd: ~17000 nM
[1]
  inhibition of HMGB1-induced TNF release: dose-dependently inhibited

## haptoglobin β: Haptoglobin beta subunit (human), SEQ ID NO:3; recombinant
HMGB1; surface plasmon resonance, representative of 3 separate experiments
  Kd: 29 nM
[2]; result in words
  inhibition of HMGB1-induced TNF release: as effective as haptoglobin
CLP-induced sepsis; haptoglobin KO mice, doses as low as 100 μg per animal per day, once a day for 3 days starting 24 hours after CLP, N=25 mice/group
  rescue from death after CLP: rescued from death
CLP-induced sepsis; mice with CLP-induced sepsis, vehicle-treated group 50%, n=22 per group, P<0.05
  CLP survival: 85%
CLP-induced sepsis; wild type mice, 200 μg/mouse injected IP, N=16 mice/group, P<0.05
  likelihood of survival vs vehicle-treated control after CLP: twice as likely to survive
[3]
  Survival in acetaminophen-induced liver injury: 80%

B1: HMGB1 (ligand)
chain: T1 sequence (P09429 1-215)
notes: also called extracellular HMGB1
[4]
  Kd: 29 nM

B2: haptoglobin: full-length haptoglobin, acute phase protein with α and β subunits; mature human sequence SEQ ID NO:2 (protein, listed as Homo sapiens)
chain: VDSGNDVTDIADDGCPKPPEIAHGYVEHSVRYQCKNYYKLRTEGDGVYTLNDKKQWINKAVGDKLPECEADDGCPKPPEIAHGYVEHSVRYQCKNYYKLRTEGDGVYTLNNEKQWINKAVGDKLPECEAVCGKPKNPANPVQRILGGHLDAKGSFPWQAKMVSHHNLTTGATLINEQWLLTTAKNLFLNHSENATAKDIAPTLTLYVGKKQLVEIEKVVLHPNYSQVDIGLIKLKQKVSVNERVMPICLPSKDYAEVGRVGYVSGWGRNANFKFTDHLKYVMLPVADQDQCIRHYEGSTVPEKKTPKSPVGVQPILNEHTFCAGMSKYQEDTCYGDAGSAFAVHDLEEDTWYATGILSFDKSCAVAEYGVYVKVTSIQDWVQKTIAEN
[2]; at 100 μg/ml, dose-dependent
  inhibition of HMGB1-induced TNF release: up to 90%
CLP-induced sepsis; wild type and haptoglobin-gene deficient animals, result in words
  protection in intra-abdominal sepsis (CLP): confers significant protection
